{
  "source": "ChEMBL document CHEMBL1158148",
  "about": "“Characterization of an irritant 4-deoxyphorbol diester from Euphorbia tirucalli” (J Nat Prod, 1979)",
  "key": {"[1]": {"species": "Mus musculus", "assay": "Toxicity against Swiss-Webster mouse assessed as irritation in ear per 5 ul after 24 hrs", "format": "organism-based", "details": "in vivo, topical_or_ocular"}, "[2]": {"species": "Mus musculus", "assay": "Toxicity against Swiss-Webster mouse assessed as irritation in ear per 5 ul after 4 hrs", "format": "organism-based", "details": "in vivo, topical_or_ocular"}},
  "data": [
    {"smiles": "CC1=C[C@H]2[C@@]3(O)[C@H](C)[C@@H](OC(=O)c4ccccc4)[C@]4(OC(=O)c5ccccc5)[C@H]([C@@H]3C=C(CO)C[C@]2(O)C1=O)C4(C)C", "values": [
      {"measurement": "ID50", "setting": "[1]", "result": 0.83, "unit": "µg"},
      {"measurement": "ID50", "setting": "[2]", "result": 0.6, "unit": "µg"}
    ]},
    {"smiles": "CCC/C=C/C=C\\C(=O)O[C@@H]1[C@@H](C)[C@]2(O)[C@@H]3C=C(C)C(=O)[C@@H]3CC(CO)=C[C@H]2[C@@H]2C(C)(C)[C@]12O", "values": [
      {"measurement": "ID50", "setting": "[1]", "result": "> 100", "unit": "µg"},
      {"measurement": "ID50", "setting": "[2]", "result": "> 100", "unit": "µg"}
    ]},
    {"smiles": "CCC/C=C/C=C\\C(=O)O[C@@H]1[C@@H](C)[C@]2(O)[C@@H]3C=C(C)C(=O)[C@H]3CC(CO)=C[C@H]2[C@@H]2C(C)(C)[C@]12OC(C)=O", "values": [
      {"measurement": "ID50", "setting": "[1]", "result": 0.07, "unit": "µg"},
      {"measurement": "ID50", "setting": "[2]", "result": 0.04, "unit": "µg"}
    ]},
    {"smiles": "CCCCCCCCCCCCCC(=O)O[C@@H]1[C@@H](C)[C@@]2(O)[C@@H](C=C(CO)C[C@]3(O)C(=O)C(C)=C[C@@H]23)[C@@H]2C(C)(C)[C@]12OC(C)=O", "note": "[PHORBOL MYRISTATE ACETATE]", "values": [
      {"measurement": "ID50", "setting": "[1]", "result": 0.05, "unit": "µg"},
      {"measurement": "ID50", "setting": "[2]", "result": 0.04, "unit": "µg"}
    ]}
  ]
}
